What follows are compounds tested on MRSA (assay: Activity against a strain of MRSA pathogen, relative to thienamycin). Conditions: relative to the effectiveness of thienamycin, arbitrarily assigned an effectiveness of 1.
Assay type: cell-based, methicillin resistant Staphylococcus aureus
Method: The activity of the following compounds was measured against a strain of MRSA pathogen and reported as relative to the effectiveness of thienamycin, which is arbitrarily assigned an effectiveness of 1. Regarding this measure of activity, reference is made to R. Guthikonda, et al., J. Med. Chem., 30, 871 (1987). [drawing 76]

SMILES | ANTI-INFECTIVE ACTIVITY MRSA
C[C@@H](O)[C@H]1C(=O)N2C(C(=O)O)=C(c3cc([S+](C)[O-])cc([S+](C)[O-])c3)C[C@H]12 (stereo partly drawn) [R^a1=(S→O)Me, R^a2=H, R^a3=(S→O)Me] | 1.2
CC(O)C1C(=O)N2C(C(=O)O)=C(c3cc(I)cc(I)c3)CC12 [R^a1=I, R^a2=H, R^a3=I, sodium (5R,6S)-2-[(3,5-diiodo)phenyl]-6-[1R-1-hydroxyethyl]-carbapen-2-em-3-carboxylate] | 88
CC(O)C1C(=O)N2C(C(=O)O)=C(c3cc(I)cc([S+](C)[O-])c3)CC12 [R^a1=I, R^a2=H, R^a3=(S→O)Me, sodium (5R, 6S)-2-[(3-methylsulfinyl)-5-iodophenyl]-6-[(1R)-1-hydroxyethyl]carbapen-2-em-3-carboxylate] | 63
CC(O)C1C(=O)N2C(C(=O)O)=C(c3cccc(CO)c3)CC12 (stereo not drawn) [R^a1=H, R^a2=H, R^a3=CH2OH, reference compound] | 0.9
CC(O)C1C(=O)N2C(C(=O)O)=C(c3cccc(I)c3)CC12 (stereo not drawn) [R^a1=I, R^a2=H, R^a3=H, reference compound] | 21
CC(O)C1C(=O)N2C(C(=O)O)=C(c3ccc(C=O)cc3)CC12 (stereo not drawn) [R^a1=H, R^a2=HC=O, R^a3=H, reference compound] | 2
CSc1cc(CO)cc(C2=C(C(=O)O)N3C(=O)[C@H]([C@@H](C)O)[C@H]3C2)c1 [R^a1=SMe, R^a2=H, R^a3=CH2OH] | 3.2
C[C@@H](O)[C@H]1C(=O)N2C(C(=O)O)=C(c3cc(S(C)(=O)=O)cc(S(C)(=O)=O)c3)C[C@H]12 [R^a1=[drawing], R^a2=H, R^a3=[drawing]] | 12
CC(O)C1C(=O)N2C(C(=O)O)=C(c3cccc(C=O)c3)CC12 (stereo not drawn) [R^a1=H, R^a2=H, R^a3=HC=O, reference compound] | 3.3
CSc1cc(I)cc(C2=C(C(=O)O)N3C(=O)C(C(C)O)C3C2)c1 [R^a1=I, R^a2=H, R^a3=SMe, sodium (5R, 6S)-2-[(3-methylthio)-5-iodophenyl]-6-[(1R)-1-hydroxyethyl]carbapen-2-em-3-carboxylate] | 60
CC(O)C1C(=O)N2C(C(=O)O)=C(c3ccc(I)cc3)CC12 (stereo not drawn) [R^a1=H, R^a2=I, R^a3=H, reference compound] | 1.8
CSc1cc(SC)cc(C2=C(C(=O)O)N3C(=O)C(C(C)O)C3C2)c1 (stereo not drawn) [R^a1=SMe, R^a2=H, R^a3=SMe] | 28
CC(O)C1C(=O)N2C(C(=O)O)=C(c3cc(Br)cc(C=O)c3)CC12 [R^a1=Br, R^a2=H, R^a3=HC=O, sodium (5R,6S)-2-[(3-aldehydo)-(5-bromo)phenyl]-6-[(1R)-1-hydroxyethyl]carbapen-2-em-3-carboxylate] | 219
CC(O)C1C(=O)N2C(C(=O)O)=C(c3cc(I)cc(S(C)(=O)=O)c3)CC12 (stereo not drawn) [R^a1=I, R^a2=H, R^a3=[drawing]] | 63
C[C@@H](O)[C@H]1C(=O)N2C(C(=O)O)=C(c3cc([S+](C)[O-])cc(S(C)(=O)=O)c3)C[C@H]12 (stereo partly drawn) [R^a1=(S→O)Me, R^a2=H, R^a3=[drawing]] | 3.7
CSc1cc(C=O)cc(C2=C(C(=O)O)N3C(=O)[C@H]([C@@H](C)O)[C@H]3C2)c1 [R^a1=SMe, R^a2=H, R^a3=HC=O] | 61
CC(O)C1C(=O)N2C(C(=O)O)=C(c3cc(Br)cc(CO)c3)CC12 (stereo not drawn) [R^a1=Br, R^a2=H, R^a3=CH2OH, reference compound] | 8.7
CSc1cc(C2=C(C(=O)O)N3C(=O)[C@H]([C@@H](C)O)[C@H]3C2)cc([S+](C)[O-])c1 (stereo partly drawn) [R^a1=SMe, R^a2=H, R^a3=(S→O)Me, sodium (5R,6S)-2-[(3-methylsulfinyl)-(5-methylthio)phenyl]-6-[(1R)-hydroxyethyl]carbapen-2-em-3-carboxylate] | 6.1
